# Columns and labels:
# [1] = Inhibition of SARS Coronavirus helicase expressed in Escherichia coli assessed as reduction in ATP hydrolysis preincubated for 5 mins followed by ATP and circular ssDNA M13 addition and measured after 10 mins by malachite green and ammonium molybdate reagent based assay; design: species or system Severe acute respiratory syndrome-related coronavirus
# [2] = Inhibition of SARS Coronavirus helicase expressed in Escherichia coli assessed as reduction in dsDNA unwinding activity by FRET assay; design: species or system Severe acute respiratory syndrome-related coronavirus
# [3] = Inhibition of SARS Coronavirus helicase pp1ab domain assessed as reduction in ATPase activity by phosphomolybdate-malachite green assay; design: species or system Severe acute respiratory syndrome-related coronavirus
# [4] = Inhibition of SARS Coronavirus helicase pp1ab domain assessed as reduction in helicase activity using DT20Cy3/Release BHQ oligomers by FRET-based assay; design: species or system Severe acute respiratory syndrome-related coronavirus
# Human coronavirus OC43 = test: Antiviral activity against wild type HCoV-OC43 infected in BHK-21 cells incubated for 72 hrs by RT-PCR method; format: functional, cell-based; details: Betacoronavirus 1, BHK-21, 72 h
# [5] = Antiviral activity against HCoV-NL63 infected in Rhesus macaque LLC-MK2 cells incubated for 72 hrs by RT-PCR method; format: functional, cell-based; details: Human coronavirus NL63, LLC-MK2, 72 h
# in vitro [6] = details: hamster, BHK-21 cells
# in vitro [7] = details: hamster, BHK-21 cells; remark: listed apart in the source
# in vitro [8] = details: rhesus monkey, LLC-MK2 cells
# in vitro [9] = details: rhesus monkey, LLC-MK2 cells; remark: listed apart in the source
# [10] = Selectivity index, ratio of CC50 for African green monkey Vero E6 cells to EC50 for SARS-CoV infected in African green monkey Vero E6 cells; format: toxicity, Vero C1008; details: read-out: Ratio CC50/EC50
# [11] = Cytotoxicity against African green monkey Vero E6 cells incubated for 2 days by the MTS assay; format: cell-based, Vero C1008; details: chlorocebus sabaeus, time 2 day
# SARS-CoV = test: Antiviral activity against SARS-CoV infected in African green monkey Vero E6 cells assessed as reduction in viral replication by ELISA; format: functional, organism-based; details: Severe acute respiratory syndrome-related coronavirus, Vero C1008
# SARS-CoV-2 = test: Antiviral activity against 2019-nCoV BetaCoV/Wuhan/WIV04/2019 infected in African green monkey VeroE6 cells assessed as reduction in viral yield preincubated with virus for 1 hr followed by cell infection and […] by qRT-PCR method; format: functional, organism-based; details: Severe acute respiratory syndrome coronavirus 2, BetaCoV/Wuhan/WIV04/2019, Vero C1008
# [12] = Cytotoxicity against African green monkey Vero E6 cells by the CCK8 assay; format: cell-based, Vero C1008; details: chlorocebus sabaeus
# [13] = Selectivity index, ratio of CC50 for African green monkey Vero E6 cells to EC50 for 2019-nCoV Beta CoV/Wuhan/WIV04/2019 infected in African green monkey Vero E6 cells; format: toxicity, Vero C1008; details: read-out: Ratio CC50/EC50
compound,measurement,setting,value
NS(=O)(=O)c1ccc(NC(=O)/C=C/c2ccco2)cc1,IC50,[1],2.09 µM
same,IC50,[2],13.2 µM
CCn1c(S)nc2c1c(=O)[nH]c(=O)n2C,IC50,[1],8.66 µM
same,IC50,[2],41.6 µM
COc1cc(CC(C)c2nc(C)c(O)c(C34OC5(O)CC(O)(CC(O)(C5)O3)O4)c2CO)ccc1O (configuration not stated),IC50,[3],2.8 µM
same,IC50,[4],5.4 µM
COc1cc(C23OC4(O)CC(O)(CC(O)(C4)O2)O3)ccc1O,IC50,[3],0.68 µM
same,IC50,[4],2.7 µM
Cc1nc(I)c(C(=O)O)c(C23OC4(O)CC(O)(CC(O)(C4)O2)O3)c1O,IC50,[3],0.54 µM
same,IC50,[4],7 µM
CC[C@H]1CN2CCc3cc(OC)c(OC)cc3[C@@H]2C[C@@H]1C[C@H]1NCCc2cc(OC)c(OC)cc21 [EMETINE],EC50,Human coronavirus OC43,0.3 µM
same,EC50,[5],1.43 µM
same,CC50 at 72 h,in vitro [6],2.69 µM
same,selectivity ratio,in vitro [7],9
same,CC50 at 72 h,in vitro [8],3.63 µM
same,selectivity ratio,in vitro [9],2.5
C/C=C(\C)C(=O)O[C@H]1[C@H](OC(C)=O)[C@]2(CO)[C@H](O)C[C@]3(C)C(=CC[C@@H]4[C@@]5(C)CC[C@H](O[C@@H]6O[C@H](C(=O)O)[C@@H](O[C@@H]7O[C@H](CO)[C@@H](O)[C@H](O)[C@H]7O)[C@H](O)[C@H]6O[C@@H]6O[C@H](CO)[C@@H](O)[C@H](O)[C@H]6O)[C@](C)(CO)[C@@H]5CC[C@]43C)[C@@H]2CC1(C)C [ESCIN IA],selectivity ratio,[10],2.5
same,CC50 at 48 h,[11],25 µM
same,IC50,SARS-CoV,6 µM
CC[C@@]1([C@H]2O[C@H]([C@H]3O[C@@](O)(CO)[C@H](C)C[C@@H]3C)C[C@H]2C)CC[C@H]([C@@]2(C)CC[C@]3(C[C@H](O)[C@@H](C)[C@@H]([C@H](C)[C@H](OC)[C@@H](C)C(=O)O)O3)O2)O1 [MONENSIN SODIUM],EC50,Human coronavirus OC43,3.81 µM
same,EC50,[5],1.54 µM
COc1c(C)c2c(c(O)c1C/C=C(\C)CCC(=O)OCCN1CCOCC1)C(=O)OC2 [MYCOPHENOLATE MOFETIL],EC50,Human coronavirus OC43,1.58 µM
same,EC50,[5],0.23 µM
same,CC50 at 72 h,in vitro [6],3.43 µM
same,selectivity ratio,in vitro [7],2.2
same,CC50 at 72 h,in vitro [8],3.01 µM
same,selectivity ratio,in vitro [9],13
COc1c(C)c2c(c(O)c1C/C=C(\C)CCC(=O)O)C(=O)OC2 [MYCOPHENOLIC ACID],EC50,Human coronavirus OC43,1.95 µM
same,EC50,[5],0.18 µM
same,CC50 at 72 h,in vitro [6],3.55 µM
same,selectivity ratio,in vitro [7],1.8
same,CC50 at 72 h,in vitro [8],3.44 µM
same,selectivity ratio,in vitro [9],19
N=C(N)c1ccc2cc(OC(=O)c3ccc(N=C(N)N)cc3)ccc2c1 [NAFAMOSTAT],EC50,SARS-CoV-2,22.5 µM
same,CC50,[12],> 100 µM
same,selectivity ratio,[13],> 4.4
CC(=O)Oc1ccccc1C(=O)Nc1ncc([N+](=O)[O-])s1 [NITAZOXANIDE],EC50,SARS-CoV-2,2.12 µM
same,CC50,[12],> 35.5 µM
same,selectivity ratio,[13],> 16.7
Nc1nc2c(ncn2CCC(CO)CO)c(=O)[nH]1 [PENCICLOVIR],IC50,SARS-CoV-2,95.9 µM
same,CC50,[12],> 400 µM
same,selectivity ratio,[13],> 4.2
Nc1ccc(/N=N/c2ccccc2)c(N)n1 [PHENAZOPYRIDINE],EC50,Human coronavirus OC43,1.9 µM
same,EC50,[5],2.02 µM
same,CC50 at 72 h,in vitro [6],> 20 µM
same,selectivity ratio,in vitro [7],> 10
same,CC50 at 72 h,in vitro [8],> 20 µM
same,selectivity ratio,in vitro [9],> 9.9
Cc1cc(/C=C/c2ccc3cc(N(C)C)ccc3[n+]2C)c(C)n1-c1ccccc1 [PYRVINIUM PAMOATE],EC50,Human coronavirus OC43,3.21 µM
same,EC50,[5],3.35 µM
COC(=O)[C@H]1[C@H]2C[C@@H]3c4[nH]c5cc(OC)ccc5c4CCN3C[C@H]2C[C@@H](OC(=O)c2cc(OC)c(OC)c(OC)c2)[C@@H]1OC [RESERPINE],selectivity ratio,[10],7.3
same,CC50 at 48 h,[11],25 µM
same,IC50,SARS-CoV,3.4 µM
NC(=O)c1ncn([C@@H]2O[C@H](CO)[C@@H](O)[C@H]2O)n1 [RIBAVIRIN],CC50,[12],> 400 µM
CC(C)[C@@H]1NC(=O)[C@H](C)OC(=O)[C@@H](C(C)C)NC(=O)[C@@H](C(C)C)OC(=O)[C@H](C(C)C)NC(=O)[C@H](C)OC(=O)[C@@H](C(C)C)NC(=O)[C@@H](C(C)C)OC(=O)[C@H](C(C)C)NC(=O)[C@H](C)OC(=O)[C@@H](C(C)C)NC(=O)[C@@H](C(C)C)OC1=O [VALINOMYCIN],selectivity ratio,[10],80
same,CC50 at 48 h,[11],68 µM
same,IC50,SARS-CoV,0.85 µM

# From ChEMBL document CHEMBL4715853 (J Med Chem, 2020)
